Laboratory results taken from publication PMC11213709, “De novo design of proteins housing excitonically coupled chlorophyll special pairs” (Nature Chemical Biology, 2024).
pKd: −log10 of the molar value.

What was measured:
Assay type in all cases: binding, synthetic construct
SP1 = target: T1, SP1; experiment: X-ray crystal structure at […] Å; absorption titration (Kd1 […], Kd2 […]); fluorescence titration ([…])
T1 construct: de novo designed C2-symmetric homodimer, two ZnPPaM per dimer

SP2 = target: T2, SP2; experiment: X-ray crystal structure at […] Å; CD titration (Kd1 […], Kd2 […]); absorption titration (Kd1 […], Kd2 […]); fluorescence titration ([…])
T2 construct: de novo designed C2-symmetric homodimer, two ZnPPaM per dimer

SP3 = target: T3, SP3; experiment: CD titration (Kd1 […], Kd2 […]); absorption titration (Kd1 […], Kd2 […]); fluorescence titration ([…])
T3 construct: de novo designed C2-symmetric homodimer, two ZnPPaM per dimer

Work on C=Cc1c(C)c2[n]3c1=CC1=NC(=Cc4c(C)c5c([n]4[Zn]3)C(=C3N=C(C=2)[C@@H](C)[C@@H]3CCC(=O)OC)[C@@H](C(=O)OC)C5=O)C(CC)=C1C [ZnPPaM] yielded a pKd (SP1) of 6.54, a pKd (SP2) of 6.52 and a pKd (SP3) of 6.10.
